Data reported in patent US5446152A, “Heterocyclic compounds active in gastro-intestinal pathologies” (priority 1993, dated 1995).
pEC50: −log10 of the molar value. Where a name gives a salt, the structure may show the parent alone. Read-outs that look alike come from different tables or passages of the source.

Tests used:
[1] = tested on: histamine on guinea-pig ileum; assay: Influence on the activity of histamine on guinea-pig ileum; details: isolated guinea-pig ileum
Experimental: In vitro tests were carried out to evaluate the effect of the compounds of formula I and some of their pharmacologically acceptable salts on physiological peristalsis, on the action of the histamine, serotonine and acetylcholine. The effect on the histamine was evaluated on a preparation of guinea-pig ileum according to the method described by the above-mentioned authors. […] The rabbit jejunum was used to evaluate the extent of the spontaneous peristaltic contractions in the presence and in the absence of the derivatives being studied. On the guinea-pig ileum the cumulative dose-response curve to histamine were recorded in the presence of increasing concentrations of the products being examined.

gastric dumping = assay: Test of gastric dumping in the rat; assay type: in vivo; details: for Increase % of the gastric dumping with respect to the controls: 30' before, measured 20' after the coloured meal, * = p<0.05
Experimental: (§1) In tables 5, 6, 7 and 8 the significance was determined by means of Student's test on absolute values with respect to the relative controls using 10 animals per group in tests 5, 6 and 7.
Within the gastro-duodenal tract, the prokinetic activity was evaluated by means of the test of gastric dumping in the rat, according to the method reported by Scarpignato C. in J. Pharmacol. 14, 261, 1983.

[2] = Study of acute toxicity (LD50); assay type: in vivo; details: rat, in vivo, iv; Sprague-Dawley rats of both sexes, observation period of 14 days
Experimental: (§2) The acute toxicity (LD50)of the derivatives described in this invention was evaluated according to the method reported by Lietchfield J. T. and Wilcoxon F. in J. Pharmacol. Exp. Ther. 96, 99, 1949, on Sprague-Dawley rats of both sexes, over an observation period of 14 days from the day of treatment.

[3] = tested on: serotonine on the fornix of the rat stomach; assay: Influence on the serotonine activity on the fornix of the rat stomach; parameters: species or system Wistar rat
Experimental: (§3) In vitro tests were carried out to evaluate the effect of the compounds of formula I and some of their pharmacologically acceptable salts on physiological peristalsis, on the action of the histamine, serotonine and acetylcholine.
The effect on the serotonine was evaluated on the fornix of the stomach of a rat according to the method of Vane J. R. in Br. J. Pharmacol. Cheroother. 12, 344, 1957.
The action on the serotonine was evaluated on the fornix of the stomach of rat, also taken from Wistar rat sacrificed after 24 hours fasting, following the technique reported by Vane J. R. in Br. J. Pharmacol. Chemoter. 12, 344, 1957, as previously described.

rabbit jejunum = assay: Spontaneous peristaltic activity on rabbit jejunum; details: for Emax / pEC50 / EC (maximum effect): Oryctolagus cuniculus; for Emax: read-out: maximum effect % (max. increase of extent of the contractions); for pEC50: read-out: CE50 (concentration able to produce 50% of the maximum effect); for EC (maximum effect): read-out: concentration required to obtain the maximum effect
Experimental: as §3
The action on physiological peristalsis was evaluated on an isolated rabbit jejunum preparation, according to the method reported by Magnus J. in Pfluegers Arch. Gen. Physiol.
The rabbit jejunum was used to evaluate the extent of the spontaneous peristaltic contractions in the presence and in the absence of the derivatives being studied.

intestinal transit = assay: Intestinal transit of an opaque meal in the mouse (prokinetic action); assay type: in vivo, Swiss albino mice; details: for % of intestine (from pylorus to anus) travelled by the opaque meal / change in vivo at 0.0098 mg/kg: 9.8 μg/Kg p.o.; for % of intestine (from pylorus to anus) travelled by the opaque meal / change in vivo at 0.0098 mg/kg / ED50: 15' before the opaque meal; for change in vivo at 0.0098 mg/kg: Mus musculus, read-out: variation in % with respect to the controls; for change in vivo at 0.0098 mg/kg / ED50: po; for change in vivo at 0.0098 mg/kg / Variation % with respect to the controls: * = p<0.05; for Variation % with respect to the controls / ED50: mouse; for Variation % with respect to the controls: dose five times greater than ED50; for ED50: read-out: DE50 (the source's name)
Experimental: as §1
The prokinetic action was evaluated in vivo on Swiss albino mice determining the influence of the products on the intestinal transit of an opaque meal, according to the method described by Macht D. I. and Barba-Gose J. in J. Amer. Pharm. Ass. 20, 558, 1931 and later by Witkin L. B. et al. in J. Pharmacol. Exp. Ther. […]
The method involved the administration of an opaque meal to the mice after a 24 hour fast, through gastric probe, 15 minutes after the administration of the product.
After sacrificing the animals 20 minutes after the administration of the opaque meal, the percentage of the length of the intestine travelled by the opaque meal was calculated.

[4] = tested on: acetylcholine on the rat ascending colon; assay: Influence on the acetylcholine activity on the rat ascending colon; parameters: species or system Wistar rat; details: isolated rat ascending colon
Experimental: as §3
Finally the effect on the acetylcholine was evaluated on the ascending colon of a rat, according to the method of Gaddum J. H. and Horton E. W. reported in Br. J. Pharmacol. Chemother. 14, 117, 1959.
The effect of the products on the contracturing action of the acetylcholine was studied on the isolated ascending colon of rat, taken from Wistar rat sacrificed after 24 hours fasting, washed with De Jalon fluid at 27° C. and perfused with the same oxygenated fluid (95% oxygen and 5% carbon dioxide) at the temperature of 27° C. In this case too the cumulative dose-response curves were recorded in the presence of increasing concentrations of the products being studied.

[5] = tested on: emesis induced with cisplatin; assay: Test of vomit from cisplatin in the pigeon (antiemetic activity); assay type: in vivo; details: one hour before cisplatin 7.5 mg/kg; for Acts of vomit (average/anim.) / Animals that vomit % / Latency of 1st act of vomit: * = p<0.05
Experimental: as §1
Finally the antiemetic activity was evaluated in the pigeon after induction of emesis with cisplatin, according to the method of Preziosi P. et al. in Eur. J. Pharmacol. 221, 343, 1992.

behaviour = assay: Irwin's test (effects as regards behaviour); assay type: in vivo; details: rats, 20 mg/Kg i.p.
From the text: Finally, preliminary studies on the effects as regards behaviour have been performed by means of Irwin's test, according to the method reported by Irwin S. in Gordon Res. Conf. on Medicinal Chem. 1959, 133, 1959, modified in that rats were used instead of mice.

Sprague-Dawley rats = assay: Study of acute toxicity (LD50); assay type: in vivo; details: Sprague-Dawley rats of both sexes, i.v., observation period of 14 days; 20160 min
Experimental: as §2

cholinesterase = details: cited from earlier work
[6] = tested on: dopaminergic receptors D2; details: cited from earlier work
[7] = tested on: gastro-intestinal motility; details: cited from earlier work
[8] = isolated rabbit jejunum, spontaneous peristaltic contractions

In the case of `CCN(CC)CCN1CNc2ccc(Cl)cc2C1=O.O=C(O)C(=O)O` [Example 1, 6-Chloro-3-[2-(diethylamino)ethyl]-2,3-dihydro-4(1H)-quinazolinone oxalate], the “active concentration (histamine)” value [1] was 100 µM, the “Increase % of the gastric dumping with respect to the controls” value (from here on “Increase % of the gastric dumping”) (gastric dumping; 12.5 μg/kg) was 27.6% and the “Increase % of the gastric dumping” value (gastric dumping; 50.0 μg/kg) was 81.0%. For the same compound, the “Increase % of the gastric dumping” value (gastric dumping; 100.0 μg/kg) was 40.0%, the “Increase % of the gastric dumping” value (gastric dumping; 200.0 μg/kg) was 45.7% and the “Increase % of the gastric dumping” value (gastric dumping; 400.0 μg/kg) was 34.0%. For the same compound, the “level of activity on the gastric dumping” value (gastric dumping; rat, text statement on table 7) was “high level of activity on the gastric dumping”, the LD50 at 336 h [2] was 100 mg/kg and the “active concentration (serotonine)” value [3] was 10 µM. The “effect on the serotonine activity” value ([3]; oxalate) was “increase the effect of the serotonine”, the Emax (rabbit jejunum; [8]) was 75% and the pEC50 (rabbit jejunum; isolated rabbit jejunum) was 5.52. For the same compound, the EC (maximum effect) (rabbit jejunum; isolated rabbit jejunum) was 10 µM, the “effect on the spontaneous peristalsis in comparison with cisapride” value (rabbit jejunum; rabbit jejunum, examples 1 and 2 at greater concentrations than the reference, example 6 at identical concentrations) was “greater than that of cisapride” and the “% of intestine (from pylorus to anus) travelled by the opaque meal” value (intestinal transit) was 52.0%. For the same compound, the change in vivo at 0.0098 mg/kg (intestinal transit) was 34.4%, the “Variation % with respect to the controls” value (intestinal transit) was 33.7% and the ED50 (intestinal transit) was 0.0098 mg/kg. The “active concentration (acetylcholine)” value [4] was 100 µM, the “Variation % of the time of latency with respect to the controls” value ([5]; 50.0 μg/kg i.m.) was -8.3% and the “Acts of vomit (average/anim.)” value ([5]; 50.0 μg/kg i.m.) was 5.0 average/anim. The “Animals that vomit %” value ([5]; 50.0 μg/kg i.m.) was 100.0%, the “Latency of 1st act of vomit” value ([5]; 50.0 μg/kg i.m.) was 77.5 min and the “Variation % of the time of latency with respect to the controls” value ([5]; 100.0 μg/kg i.m.) was “+14.7%”. For the same compound, the “Acts of vomit (average/anim.)” value ([5]; 100.0 μg/kg i.m.) was 4.0 average/anim, the “Animals that vomit %” value ([5]; 100.0 μg/kg i.m.) was 100.0% and the “Latency of 1st act of vomit” value ([5]; 100.0 μg/kg i.m.) was 97.0 min.

With `CCN(CC)CCCN1CNc2ccc(Cl)cc2C1=O` [Example 3, 6-Chloro-3-3-(diethylamino)propyl-2,3-dihydro-4(1H)-quinazolinone oxalate] the “effect on the serotonine activity” value [3] was “act as competitive antagonists”, the Emax (rabbit jejunum; [8]) was 25% and the pEC50 (rabbit jejunum; isolated rabbit jejunum) was 8.00. The EC (maximum effect) (rabbit jejunum; isolated rabbit jejunum) was 1 µM, the “% of intestine (from pylorus to anus) travelled by the opaque meal” value (intestinal transit) was 45.0% and the change in vivo at 0.0098 mg/kg (intestinal transit) was 11.1%. For the same compound, the “Variation % with respect to the controls” value (intestinal transit) was 6.4% and the “variations with respect to the controls in behavioural parameters (Irwin's test)” value (behaviour) was “no significant variations with respect to the controls”.

With `CCN(CC)CCN1CN(C)c2ccc(Cl)cc2C1=O` [Example 11, 6-Chloro-3-[2-(diethylamino)ethyl]-2,3-dihydro-1-methyl-4(1H)-quinazolinonecitrate] the LD50 (Sprague-Dawley rats) was 80 mg/Kg/i.v.

In the case of `COc1cc(N)c(Cl)cc1C(=O)NC1CCN(CCCOc2ccc(F)cc2)CC1OC` (centres unmarked) [cisapride, reference compound], the cholinesterase inhibition (cholinesterase) is listed as “practically no”, the LD50 at 336 h [2] is listed as 35 mg/kg and the Emax (rabbit jejunum) is listed as 40%. For the same compound, the pEC50 (rabbit jejunum; isolated rabbit jejunum) was 7.70 and the ED50 (intestinal transit) was 0.019 mg/kg.

For `COc1cc(N)c(Cl)cc1C(=O)NC1CCN(Cc2ccccc2)CC1` [clebopride], the “activity on the dopaminergic receptors D2” value [6] is given as “a fair amount of activity on the dopaminergic receptors D2” and the “gastro-intestinal motility / prokinetic activity” value [7] is given as “having prokinetic activity”.

For `CCN1CC(NC(=O)c2cc(Cl)c(N)cc2OC)CN1CC` [dazopride], the “activity on the dopaminergic receptors D2” value [6] is given as “a fair amount of activity on the dopaminergic receptors D2” and the “gastro-intestinal motility / prokinetic activity” value [7] is given as “having prokinetic activity”.

In the case of `CCN(CC)CCNC(=O)c1cc(Cl)c(N)cc1OC` [metoclopramide], the “activity on the dopaminergic receptors D2” value [6] is listed as “both central and peripheral antagonistic activity on the dopaminergic receptors D2” and the “gastro-intestinal motility / prokinetic activity” value [7] is listed as “stimulates the motility of the upper gastro-intestinal tract”.
